{"source": "PubChem BioAssay AID1259407", "about": "(Chemical Carcinogenesis Research Information System (CCRIS), 2018)", "test_system": "CCRIS mutagenicity, Ames/micronucleus/aberration tests", "test": "CCRIS mutagenicity studies", "key": {"[1]": {"details": "Test System: AMES SALMONELLA TYPHIMURIUM, Strain/Indicator: TA98, Metabolic Activation: NONE, Method: STANDARD PLATE"}, "[2]": {"details": "Test System: AMES SALMONELLA TYPHIMURIUM, Strain/Indicator: TA100, Metabolic Activation: NONE, Method: STANDARD PLATE"}, "[3]": {"details": "Test System: AMES SALMONELLA TYPHIMURIUM, Strain/Indicator: TA100, Metabolic Activation: RAT, LIVER, S-9, AROCLOR 1254, Method: STANDARD PLATE"}, "[4]": {"details": "Test System: AMES SALMONELLA TYPHIMURIUM, Strain/Indicator: TA100, Metabolic Activation: NONE, Method: PREINCUBATION"}}, "note": "Active and inactive are the calls of the source. The rule behind the calls is not given here.", "data": [{"smiles": "Cc1ccc(NCCO)cc1O", "values": [{"measurement": "mutagenic call", "setting": "[1]", "result": "inactive; negative"}, {"measurement": "mutagenic call", "setting": "Test System: AMES SALMONELLA TYPHIMURIUM, Strain/Indicator: TA98, Metabolic Activation: RAT, LIVER, S-9, AROCLOR 1254, Method: STANDARD PLATE", "result": "inactive; negative"}, {"measurement": "mutagenic call", "setting": "[2]", "result": "inactive; negative"}, {"measurement": "mutagenic call", "setting": "[3]", "result": "inactive; negative"}, {"measurement": "mutagenic call", "setting": "Test System: AMES SALMONELLA TYPHIMURIUM, Strain/Indicator: TA1535, Metabolic Activation: NONE, Method: STANDARD PLATE", "result": "inactive; negative"}, {"measurement": "mutagenic call", "setting": "Test System: AMES SALMONELLA TYPHIMURIUM, Strain/Indicator: TA1535, Metabolic Activation: RAT, LIVER, S-9, AROCLOR 1254, Method: STANDARD PLATE", "result": "inactive; negative"}, {"measurement": "mutagenic call", "setting": "Test System: AMES SALMONELLA TYPHIMURIUM, Strain/Indicator: TA1537, Metabolic Activation: NONE, Method: STANDARD PLATE", "result": "inactive; negative"}, {"measurement": "mutagenic call", "setting": "Test System: AMES SALMONELLA TYPHIMURIUM, Strain/Indicator: TA1537, Metabolic Activation: RAT, LIVER, S-9, AROCLOR 1254, Method: STANDARD PLATE", "result": "inactive; negative"}, {"measurement": "mutagenic call", "setting": "Test System: AMES SALMONELLA TYPHIMURIUM, Strain/Indicator: TA1538, Metabolic Activation: NONE, Method: STANDARD PLATE", "result": "inactive; negative"}, {"measurement": "mutagenic call", "setting": "Test System: AMES SALMONELLA TYPHIMURIUM, Strain/Indicator: TA1538, Metabolic Activation: RAT, LIVER, S-9, AROCLOR 1254, Method: STANDARD PLATE", "result": "inactive; negative"}, {"measurement": "mutagenic call", "setting": "Test System: MOUSE LYMPHOMA, Strain/Indicator: L5178Y (TK+/TK-), Metabolic Activation: NONE, Method: SUSPENSION/PLATE", "result": "inactive; negative"}, {"measurement": "mutagenic call", "setting": "Test System: UDS HUMAN CELLS, Strain/Indicator: THY INCORP, Metabolic Activation: NONE, Method: LIQUID SCINTILLATION COUNTING", "result": "inactive; negative"}, {"measurement": "mutagenic call", "setting": "Test System: UDS HUMAN CELLS, Strain/Indicator: THY INCORP, Metabolic Activation: RAT, LIVER, S-9, PHENOBARBITAL AND BETA-NAPHTHOFLAVONE, Method: LIQUID SCINTILLATION COUNTING", "result": "inactive; negative"}]}, {"smiles": "C[C@H](CCC(=O)O)[C@H]1CC[C@H]2[C@@H]3[C@H](O)C[C@@H]4C[C@H](O)CC[C@]4(C)[C@H]3CC[C@]12C", "values": [{"measurement": "mutagenic call", "setting": "[2]", "result": "inactive; negative"}, {"measurement": "mutagenic call", "setting": "[3]", "result": "inactive; negative"}]}, {"smiles": "CC(OP(=O)(OC(C)C(Br)CBr)OC(C)C(Br)CBr)C(Br)CBr", "note": "(stereo not given)", "values": [{"measurement": "mutagenic call", "setting": "Test System: AMES SALMONELLA TYPHIMURIUM, Strain/Indicator: TA100, Metabolic Activation: RAT, LIVER, MICROSOMES, PHENOBARBITAL, Method: PREINCUBATION", "result": "active; positive"}, {"measurement": "mutagenic call", "setting": "Test System: AMES SALMONELLA TYPHIMURIUM, Strain/Indicator: TA100, Metabolic Activation: RAT, LIVER, MICROSOMES, Method: PREINCUBATION", "result": "active; positive"}]}, {"smiles": "N[C@@H](CS/C(Cl)=C(\\Cl)C(Cl)(Cl)Cl)C(=O)O", "values": [{"measurement": "mutagenic call", "setting": "[4]", "result": "active; positive"}, {"measurement": "mutagenic call", "setting": "Test System: AMES SALMONELLA TYPHIMURIUM, Strain/Indicator: TA100, Metabolic Activation: RAT, LIVER OR KIDNEY, MICROSOMES, Method: PREINCUBATION", "result": "active; positive"}]}, {"smiles": "CC(C)c1c(N)ccc2ccccc12", "values": [{"measurement": "mutagenic call", "setting": "[1]", "result": "inactive; negative"}, {"measurement": "mutagenic call", "setting": "Test System: AMES SALMONELLA TYPHIMURIUM, Strain/Indicator: TA98, Metabolic Activation: RAT LIVER S-9, AROCLOR, Method: STANDARD PLATE", "result": "active; positive"}, {"measurement": "mutagenic call", "setting": "[2]", "result": "inactive; negative"}, {"measurement": "mutagenic call", "setting": "Test System: AMES SALMONELLA TYPHIMURIUM, Strain/Indicator: TA100, Metabolic Activation: RAT LIVER S-9, AROCLOR, Method: STANDARD PLATE", "result": "active; positive"}]}, {"smiles": "CCCCCCCCCCCCO", "values": [{"measurement": "mutagenic call", "setting": "Test System: AMES SALMONELLA TYPHIMURIUM, Strain/Indicator: TA98, Metabolic Activation: NONE, Method: PREINCUBATION", "result": "inactive; negative"}, {"measurement": "mutagenic call", "setting": "Test System: AMES SALMONELLA TYPHIMURIUM, Strain/Indicator: TA98, Metabolic Activation: RAT, LIVER, S-9, KC 500, Method: PREINCUBATION", "result": "inactive; negative"}, {"measurement": "mutagenic call", "setting": "[4]", "result": "inactive; negative"}, {"measurement": "mutagenic call", "setting": "Test System: AMES SALMONELLA TYPHIMURIUM, Strain/Indicator: TA100, Metabolic Activation: RAT, LIVER, S-9, KC 500, Method: PREINCUBATION", "result": "inactive; negative"}, {"measurement": "mutagenic call", "setting": "Test System: AMES SALMONELLA TYPHIMURIUM, Strain/Indicator: TA1535, Metabolic Activation: NONE, Method: PREINCUBATION", "result": "inactive; negative"}, {"measurement": "mutagenic call", "setting": "Test System: AMES SALMONELLA TYPHIMURIUM, Strain/Indicator: TA1535, Metabolic Activation: RAT, LIVER, S-9, KC 500, Method: PREINCUBATION", "result": "inactive; negative"}, {"measurement": "mutagenic call", "setting": "Test System: AMES SALMONELLA TYPHIMURIUM, Strain/Indicator: TA1537, Metabolic Activation: NONE, Method: PREINCUBATION", "result": "inactive; negative"}, {"measurement": "mutagenic call", "setting": "Test System: AMES SALMONELLA TYPHIMURIUM, Strain/Indicator: TA1537, Metabolic Activation: RAT, LIVER, S-9, KC 500, Method: PREINCUBATION", "result": "inactive; negative"}, {"measurement": "mutagenic call", "setting": "Test System: AMES SALMONELLA TYPHIMURIUM, Strain/Indicator: TA1538, Metabolic Activation: NONE, Method: PREINCUBATION", "result": "inactive; negative"}, {"measurement": "mutagenic call", "setting": "Test System: AMES SALMONELLA TYPHIMURIUM, Strain/Indicator: TA1538, Metabolic Activation: RAT, LIVER, S-9, KC 500, Method: PREINCUBATION", "result": "inactive; negative"}, {"measurement": "mutagenic call", "setting": "Test System: E. COLI, Strain/Indicator: WP2 UVRA, Metabolic Activation: NONE, Method: PREINCUBATION", "result": "inactive; negative"}, {"measurement": "mutagenic call", "setting": "Test System: E. COLI, Strain/Indicator: WP2 UVRA, Metabolic Activation: RAT, LIVER, S-9, KC 500, Method: PREINCUBATION", "result": "inactive; negative"}]}]}
